From patent US11376278B2, “Compositions and methods for treating disease” (Sulfilatec, Inc., priority 2016, dated 2022)
Several values for one entry are separate records, joined by “and”; a condition that tells them apart may be missing. Equal values may be shown once. Entries after “also recorded” stand apart in the source; their conditions may differ.

Experiments:
[1] = test system: salt sensitive Dahl rats on high salt diet; assay: Survival of salt sensitive Dahl rats on high salt (8% NaCl) diet, 10 week study; assay type: in vivo, rat
Description: Control rats received AIN76A without supplemental chloride or bromide. 9 rats per study arm.
Mortality events were counted over the 10 week study. […] Thus, administration of Br^− and together increased the survival probability of 52% as compared to administration of alone (FIG. 1).

[2] = test system: 10 week-old male SHR; assay: Blood pressure and heart rate (tail cuff) one day after single IP administration in SHR; assay type: in vivo, rat; details: single IP 154.5 μg NaBr per kg
Protocol: (A) In 10 week-old male SHR, single administration of Br^− reduced systolic and diastolic blood pressures compared to saline control. […] (C-D) Measured values for systolic (C) and diastolic (D) blood pressure, denoting statistical significance where achieved. 154.5 μg NaBr per kg rat body weight injected via IP. All “Post Administration” data collected one day following administration. n=8 in Br Treatment group, =5 in saline control. BP & HR measured via tail cuff. *:p<0.05, t test.
The inventors next asked whether Br^− exerts any short-term activity in addition to the improved cardiac fibrosis noted after 10 weeks administration. Returning to the SHR preclinical model of disease, the inventors specifically asked whether Br^− administration modulates certain biomarkers associated with cardiovascular disease at one day post-administration. To this end, Br^− was administered to 8 SHR via intraperitoneal (IP) injection with an estimated 0.154 μg NaBr per gram body weight. For control, 8 SHR were administered saline via IP injection containing an estimated 4 ng NaBr per gram body weight. […] Without wishing to be bound by theory, embodiments as described herein can therapeutically improve certain hemodynamic and circulating biomarkers that are associated with progression of cardiovascular and kidney diseases. Moreover, Br^− achieves its cardiovascular and renal therapeutic activities in part via modulation of natriuretic peptide signaling.

[3] = test system: cardiac fibrosis in SHR; assay: Cardiac interstitial fibrosis, Masson's Trichrome staining, SHR; assay type: in vivo, rat; details: male SHR, 10 mg NaBr per kg AIN-76a, oral daily, 10 weeks, p<0.0001
Protocol: (§1) AIN-76A was base diet for all animals. […] Fibrosis determined from 5 μm tissue sections stained with Masson's Trichrome. […] Approximately 25-30 images were collected and processed per animal.
Following conclusion of the in vivo study, rat hearts were formalin-fixed, paraffin-embedded, and 5 μm-thick sections were obtained for histochemical analysis.

[4] = test system: dogs (epilepsy); details: dogs that do not respond to an initial course of Br- treatment; cited from earlier work
[5] = test system: humans (sedative, anti-epilepsy effect); details: in vivo; cited from earlier work
[6] = Serum Br- concentration in Dahl rats after 10 weeks on diet (mass spectrometry); details: AIN-76A+8% NaCl+Br diet
Protocol: (A) Serum Br^− concentrations from rats fed a daily diet over 10 weeks of “AIN-76A”, “AIN-76A+8% NaCl”, “AIN-76A+Br”, or “AIN-76A+8% NaCl+Br”. […] The two diets containing 8% NaCl (eg. “AIN-76A+8% NaCl” and “AIN-76A+8% NaCl+Br”) were fed to Dahl rats while the remaining two diets (eg. “AIN-76A” and “AIN-76A+Br”) were fed to SHR, as indicated in panel A. Serum Br^− measurements were determined using mass spectrometry.

[7] = test system: cardiac fibrosis in salt sensitive Dahl rats on a high salt diet; assay: Cardiac interstitial fibrosis, Masson's Trichrome staining, Dahl rats on high salt diet; assay type: in vivo, rat; details: 300 mg NaBr per kg AIN-76a+8% NaCl, 10 weeks, p<0.0001
Protocol: as §1

[8] = test system: spontaneously hypertensive rat (SHR) model of cardiovascular disease; assay: 10 week repeat dosing study in SHR disease model (organ weights, survival, urinary protein, safety); assay type: in vivo
Protocol: (A-B) Heart and kidney weights from 10 week repeat dosing study in SHR model. Br^− administered daily via diet, with AIN-76a as base diet. WKY served as genetic control. Both kidneys per animal weighed together. […] (C-D) Heart and kidney weights from panels A-B normalized to body weight. […] (E) Rats were administered a diet of AIN76A with or without 10 mg NaBr per kg feed (“SHR” and “SHR+Br” study arms, respectively). Survival probability was calculated between SHR rats receiving dietary Br^− and SHR rats receiving AIN76A control diet over a 10 week study period. As a second control, Wistar Kyoto (WKY) rats were fed AIN76A control diet over the same period. 8 rats per study arm.
Eight SHR animals received AIN76A diet for 10 weeks while 8 SHR animals received AIN76A supplemented with 10 mg NaBr/kg diet.

[9] = Serum Br- concentration in spontaneously hypertensive rats (SHR) after 10 weeks on diet; assay type: in vivo, rat; details: AIN-76A+Br diet
Protocol: (A) Serum Br^− concentrations from rats fed a daily diet over 10 weeks of “AIN-76A”, “AIN-76A+8% NaCl”, “AIN-76A+Br”, or “AIN-76A+8% NaCl+Br”. Salt sensitive Dahl rats as well as Spontaneously Hypertensive Rats (SHR) were used in these studies. The two diets containing 8% NaCl (eg. “AIN-76A+8% NaCl” and “AIN-76A+8% NaCl+Br”) were fed to Dahl rats while the remaining two diets (eg. “AIN-76A” and “AIN-76A+Br”) were fed to SHR, as indicated in panel A. Serum Br^− measurements were determined using mass spectrometry.
Rats were administered 10 mg of NaBr per kg of AIN76A diet for 10 weeks. At the end of the study, serum Br^− levels in Br-treated rats were compared to serum Br^− levels in SHR on AIN76A as well as Wistar rats on AIN76A.

[10] = test system: acute heart failure patients; details: acute heart failure patients in Japan; cited from earlier work
[11] = test system: patients with acute decompensated heart failure; details: cited from earlier work
[12] = one day post administration, vs saline

[Br-].[Na+] [Br^−, sodium bromide]
increase of survival probability compared to high salt alone ([1]; Dahl rats, 8% NaCl + 300 mg NaBr per kg food vs 8% NaCl, 10 weeks): 52%
survival probability ([1]; Dahl rats, AIN76A with 8% NaCl and 300 mg NaBr per kg food, 10 week study): 67%
survival probability vs High Salt alone (log rank test) ([1]; High Salt+Br arm (AIN76A+8% NaCl+300 mg NaBr per kg feed), 9 rats per arm, p<0.001): Significantly greater survival probability
diastolic blood pressure [2, 12]: reduced
systolic blood pressure [2, 12]: statistically significant reductions; also recorded: reduced
heart rate ([2]; one day post, not statistically significant (p=0.052)): possible reduction
cardiac fibrosis (Masson's Trichrome blue staining) [3]: dramatic reduction; also recorded: less cardiac fibrosis
therapeutic serum Br- for sedative effect [4]: above 25 mM
circulating/serum Br- levels at which the anti-epilepsy effect occurs [5]: > 6 mM and 6 to 12 mM
serum Br- concentration, toxicity assessment [6]: non-toxic
cardiac fibrosis (Masson's Trichrome) [7]: less cardiac fibrosis
survival probability among groups ([8]; SHR+Br vs SHR and WKY, 10 week study, 8 rats per arm): no statistical difference
absolute heart weight vs SHR on AIN-76a alone ([8]; SHR, 10 mg NaBr/kg diet daily, 10 weeks, p<0.05): significantly reduced; also recorded: Statistically significant reduction
urinary protein levels ([8]; SHR, 10 mg NaBr/kg diet, through the end of the 10 week study): a difference that persisted
urinary microprotein/creatinine ratio (urinary protein levels) ([8]; SHR, after one day on study diet (10 mg NaBr/kg)): significantly lower; also recorded: significantly reduced
serum Br- concentration, toxicity assessment [9]: non-toxic

CC[C@H](C)[C@@H]1NC(=O)[C@H](CCCNC(=N)N)NC(=O)[C@H](CC(=O)O)NC(=O)[C@H](CCSC)NC(=O)[C@H](CCCNC(=N)N)NC(=O)CNC(=O)CNC(=O)[C@H](Cc2ccccc2)NC(=O)[C@@H](NC(=O)[C@H](CO)NC(=O)[C@H](CO)NC(=O)[C@H](CCCNC(=N)N)NC(=O)[C@H](CCCNC(=N)N)NC(=O)[C@H](CC(C)C)NC(=O)[C@@H](N)CO)CSSC[C@@H](C(=O)N[C@@H](CC(N)=O)C(=O)N[C@@H](CO)C(=O)N[C@@H](Cc2ccccc2)C(=O)N[C@@H](CCCNC(=N)N)C(=O)N[C@@H](Cc2ccc(O)cc2)C(=O)O)NC(=O)CNC(=O)[C@H](CC(C)C)NC(=O)CNC(=O)[C@H](CO)NC(=O)[C@H](CCC(N)=O)NC(=O)[C@H](C)NC(=O)CNC1=O [carperitide]
in-hospital mortality [10]: increased in-hospital mortality

nesiritide
mortality [11]: increased mortality
renal function [11]: worsening renal function
